For assay [1], the system named is K. pneumoniae CRKP 5452 PhoQL348Q. The assay can be described thus: MIC against colistin-resistant mutant. In kind it is cell-based. How it is done:
(§1) All MIC assays were performed two independent times (n = 2) in 96‐well plates using a broth micro‐dilution method. The lowest concentration of that inhibited visible microbial growth was recorded as the MIC value.
(§2) For most of bacterial strains, overnight cultures were diluted 5000‐fold in LB broth. For E. faecium and S. aureus, overnight cultures were diluted 1000‐ and 10000‐fold in LB broth, respectively. 100 µL of diluted cells was mixed with 100 µL of LB broth containing each peptide ranging from 64 to 0.125 µg mL^−1 at 2‐fold serial dilutions.
(§3) Overnight cultures S. aureus USA300 were diluted 10000‐fold in LB broth, and 100 µL of dilute cell suspension was added to 96‐well plates containing 100 µL serially diluted aquicidine C4, telomycin, and daptomycin (with 15 mM CaCl2). Overnight cultures K. pneumoniae CRKP5452 were diluted 5000‐fold in LB broth, and 100 µL of dilute cell suspension was added to 96‐well plates containing 100 µL serially diluted aquicidine L and colistin. After an incubation of 24 h at 37 °C, the MIC value was determined. […] The MIC value was recorded as described above, and the process was repeated daily for 21 days. Experiments were performed two independent times (n = 2).
(§4) Single‐nucleotide polymorphisms (SNPs) for telomycin‐, daptomycin‐ or colistin‐resistant mutants were identified using SNIPPY by mapping DNBSEQ‐seq reads to the reference genome of S. aureus USA300 or K. pneumoniae CRKP5452.

The subject of assay [2] is meropenem-resistant A. baumannii 1104008. The assay can be described thus: Mouse peritonitis-sepsis model. It is filed as in vivo. Conditions: A. baumannii 1104008, neutropenic ICR mice, s.c. 1 h after infection and every 12 h up to 36 h, doses 12.5, 25, 50 mg kg^−1, n = 5. Here is the method: (§5) Six‐week‐old female ICR mice were used in all experiments and housed in a temperature‐controlled room (25 °C) with 12‐h light/dark cycle and 30% relative humidity. Mice were observed twice daily for mortality and morbidity. Abnormal clinical signs were recorded if observed and totally monitored for five days. The detailed methods for the mouse peritonitis‐sepsis model were as follows.
(§6) Meropenem‐resistant A. baumannii 1104008 or K. pneumoniae CRKP 5452 was cultured in LB broth at 37 °C fro 16 h and diluted with 5% type II porcine stomach mucin and 0.9% NaCl. All mice were rendered […] via intraperitoneal injection of cyclophosphamide at 150 mg/kg on day‐4 and day‐1 before infection. A. baumannii or K. pneumoniae cell cultures were diluted to provide a challenge inoculum of 5.0 × 10^7 CFU in 0.5 mL and then administered into each mouse via intraperitoneal injection. 25 mice were randomly grouped into five per cohort (n = 5) and each cohort was given a single dose of either vehicle (20% solutol), aquicidine L at 12.5, 25, or 50 mg kg^−1, and colistin at 12.5 mg kg^−1 1 h after infection via subcutaneous injection and repeated every 12 h up to 36 h (totally four injections).

For assay [3], the system named is meropenem-resistant K. pneumoniae CRKP 5452. Kind of assay: Mouse peritonitis-sepsis model. In kind it is in vivo. Conditions: K. pneumoniae CRKP5452, neutropenic ICR mice, s.c. 1 h after infection and every 12 h up to 36 h, doses 12.5, 25, 50 mg kg^−1, n = 5. How it is done:
as §5, §6

A further assay has as its system S. aureus USA300. Kind of assay: Scanning electron microscopy of treated cultures. Conditions: 4× the MIC, after 180 min of treatment. In kind it is cell-based.
Assay [4] has as its system S. aureus USA300 MprFT345A. The assay can be described thus: MIC against daptomycin-resistant mutant. It is filed as cell-based. Here is the method: as §1, §2, §3, §4

Molecules are shown by their SMILES. Bridge positions count the residues as written; N and C are the ends. Square brackets hold non-standard residues; d marks the D form. Peptide text beside a SMILES is read from it. * marks the point of attachment. Myristoyl = CCCCCCCCCCCCCC(=O)*; Orn = NCCC[C@H](N)C(=O)O; Dab = NCC[C@H](N)C(=O)O; Dap = NC[C@H](N)C(=O)O

As for `CCCCCCCCCCCCCC(=O)N[C@@H](CN)C(=O)N[C@H](C(=O)N[C@@H](CC(C)C)C(=O)N[C@@H](CO)C(=O)N[C@@H](CCN)C(=O)N[C@@H](CN)C(=O)N[C@@H](Cc1ccccc1)C(=O)N[C@H](C(=O)N[C@@H](CCCN)C(=O)N[C@@H](CC(N)=O)C(=O)N[C@@H](Cc1ccccc1)C(=O)O)[C@@H](C)CC)[C@@H](C)O` [synAQU5-L] (Myristoyl-[Dap]TLS[Dab][Dap]FI[Orn]NF-OH), the “resistant mutants by direct plating” value in the assay on E. coli was “failed to identify E. coli resistant mutants”. For the same compound, in assay [1] (Figure S127a, colistin-resistant mutant from serial passaging), the “antibacterial activity (MIC) K. pneumoniae CRKP 5452 PhoQL348Q” value was determined as 16 µg/mL. Also, the “increase in MIC against resistant mutant compared to wild type” value in assay [1] (K. pneumoniae CRKP5452 PhoQ^L348Q vs wild type) was found to be 4 fold. Moreover, the “minimal dose required for 100% survival” value in assay [2] and in assay [3] was 50 mg/kg throughout.
Regarding `CCCCCCCCCCCCCC(=O)N[C@@H](CN)C(=O)N[C@H](C(=O)N[C@@H](CC(C)C)C(=O)N[C@H]1COC(=O)[C@H](Cc2ccccc2)NC(=O)[C@H](CC(N)=O)NC(=O)[C@H](CCCN)NC(=O)[C@H]([C@@H](C)CC)NC(=O)[C@H](Cc2ccccc2)NC(=O)[C@H](CN)NC(=O)[C@H](CCN)NC1=O)[C@@H](C)O` [synAQU5-C4] (Myristoyl-[Dap]TLS[Dab][Dap]FI[Orn]NF; ester 4-C), the “scanning electron microscopy, cell lysis” value in the assay with S. aureus USA300 is “lysed the majority of cells”. Also, in assay [4] (Figure S127b, daptomycin-resistant mutant), the “antibacterial activity (MIC) S. aureus USA300 MprFT345A” value came out at 16 µg/mL. The “increase in MIC against resistant mutant compared to wild type” value in assay [4] (S. aureus USA300 MprF^T345A vs wild type) is 4 fold.

Values taken from paper PMC12677607, “Identification of a Pair of Linear or Cyclic Naturally Inspired Bifunctional Lipopeptide Antibiotics That Overcome Antimicrobial Resistance” (Advanced Science, 2025).
